Assay results reported in patent publication US8653087B2, “Pyrido [5, 4-D] pyrimidines as cell proliferation inhibitors” (Boehringer Ingelheim International GmbH, priority 2008, dated 2014).

What follows are molecules tested against B-Raf (V600E)-kinase (Homo sapiens (Human), UniProt P15056, V600E) (assay: Kinase test B-RAF (V600E)). Settings: B-RAF (V600E) kinase test, 250 μM ATP.
Type: biochemical
Procedure, shortened: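 B-Raf (V600E) (0.5 ng) preincubated with compound 24 h at RT (5% DMSO), then reacted 60 min at RT with 250 μM ATP and biotinylated MEK1 as substrate. Phospho-MEK (Ser217/221) captured on streptavidin and detected by europium time-resolved fluorescence; IC50 from dose-response curves.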

B-Raf (V600E)-kinase, sequence (P15056 whole entry V600E): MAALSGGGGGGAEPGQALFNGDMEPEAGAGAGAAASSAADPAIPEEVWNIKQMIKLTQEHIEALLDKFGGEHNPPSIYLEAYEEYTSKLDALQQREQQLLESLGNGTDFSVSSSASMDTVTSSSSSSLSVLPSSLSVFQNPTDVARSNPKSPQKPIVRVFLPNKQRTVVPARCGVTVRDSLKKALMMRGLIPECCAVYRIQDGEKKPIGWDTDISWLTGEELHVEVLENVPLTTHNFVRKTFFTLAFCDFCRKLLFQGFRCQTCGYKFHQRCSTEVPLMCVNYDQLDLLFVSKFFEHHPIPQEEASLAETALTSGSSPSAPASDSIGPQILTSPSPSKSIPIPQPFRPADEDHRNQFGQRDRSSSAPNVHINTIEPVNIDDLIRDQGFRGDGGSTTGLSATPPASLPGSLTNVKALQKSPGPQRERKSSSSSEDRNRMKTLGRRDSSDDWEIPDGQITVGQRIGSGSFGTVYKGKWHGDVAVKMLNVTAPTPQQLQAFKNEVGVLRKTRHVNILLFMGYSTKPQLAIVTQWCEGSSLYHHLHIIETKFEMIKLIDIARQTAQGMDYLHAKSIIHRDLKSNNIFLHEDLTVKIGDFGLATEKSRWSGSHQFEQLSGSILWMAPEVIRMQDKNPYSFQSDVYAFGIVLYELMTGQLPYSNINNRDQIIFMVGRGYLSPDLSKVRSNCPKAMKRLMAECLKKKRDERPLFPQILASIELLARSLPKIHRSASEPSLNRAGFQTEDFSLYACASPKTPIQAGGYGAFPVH

IC50 [nM]	SMILES
< 1	CNc1ncnc2c(Nc3cc(NC(=O)c4cccc(C(C)(C)C#N)c4)ccc3C)ncnc12 [VIII-1]
30	CC(C)(C#N)c1cccc(C(=O)Nc2cccc(Nc3ncnc4c(N)ncnc34)c2)c1 [VIII-2]
13	CNc1ncnc2c(Nc3cccc(NC(=O)c4cccc(C(C)(C)C#N)c4)c3)ncnc12 [VIII-3]

The next lines start with the molecule.

SMILES	IC50 [nM]
Cc1ccc(NC(=O)c2cc(N3CCN(C)CC3)cc(C(C)(C)C#N)c2)cc1Nc1ncnc2cnc(N3CCOCC3)nc12 [IV-68]	3
Cc1ccc(C(=O)Nc2cc(C(C)(C)C)on2)cc1Nc1ncnc2cncnc12 [V-1]	2
Cc1ccc(C(=O)Nc2cc(CN3CCCC3)cc(C(F)(F)F)c2)cc1Nc1ncnc2cncnc12 [V-8]	4
Cc1ccc(C(=O)Nc2cc(C(C)(C)C)n[nH]2)cc1Nc1ncnc2cncnc12 [V-9]	5
Cc1ccc(C(=O)Nc2cc(C(C)(C)C)nn2C)cc1Nc1ncnc2cncnc12 [V-10]	14
CNc1ncnc2c(Nc3cc(C(=O)Nc4cc(C(C)(C)C)on4)ccc3C)ncnc12 [VII-1]	1
